From patent US9174984B2, “Chemical compounds” (GlaxoSmithKline Intellectual Property (No. 2) Limited, priority 2011, dated 2015)

The compounds below were run against T1, Human DNMT3b/3L (Homo sapiens, UniProt Q9UBC3) (assay: DNMT inhibition assay (3H-SAM filter-binding) against DNMT3b/3L). Details: at least one experimental run or average of several runs; Examples 1-114 and 115-120 use different protocols; read-out: IC50 against DNMT 3b/3L.
T1 construct: truncated 3b (catalytic domain)
Format: biochemical
Description: DNMT Assays Used for Examples 1-114
Human DNMT3b/3L was coexpressed using truncated 3b (catalytic domain) and 3L (DNA binding domain) at GSK. Human full-length DNMT1 enzyme purchased from BPS Biosciences. Poly(dIdC) DNA (Sigma) was used at 0.002 mg/mL. Tritiated SAM (Perkin Elmer) was used at 500 nM. DNA, DNMT enzyme, and inhibitors were mixed with assay buffer (20 mM Tris pH8, 5% glycerol, 1 mM EDTA, 100 μg/mL BSA, 1 mM DTT, 50 mM NaCl) and pre-incubated without SAM for 30 min. H3 SAM was then added to initiate the methylation reaction which continues at 37° C. for 1 h. Reaction mixture was then transferred to a filter plate (Millipore Multiscreen HTS DE), then washed with 50 mM H2PO4 and 95% Ethanol. Scintillation counts were measured on the Perkin Elmer Microbeta scintillation counter.
DNMT Assays Used for Examples 115-120
DNMT enzymes were produced by GlaxoSmithKline. Human DNMT3b/3L was coexpressed using truncated 3b (catalytic domain) and 3L (DNA binding domain). DNMT1 was human, full-length protein. 3H-SAM was purchased from Perkin Elmer. Custon DNA oligonucleotide substrates were purchased from Integrated DNA technologies.
28-mer DNA Oligonucleotide Duplex (for DNMT3b/3L)
DNMT enzyme was preincubated with compound for 1 hr at RT, after which SAM and DNA were added to initiate the methylation reaction. The methylation reaction was quenched after 20 min upon the addition of >100 fold excess non-radioactive SAM. The quenched reaction mixture (80%) was transferred to a DEAE filter binding plate (Millipore Multiscreen HTS DE), washed with 3 volumes of 50 mM phosphate buffer and dried. Scintillation cocktail (MicroScint-20) was added to the plate and radioactivity (3H-DNA) was measured using a Perkin Elmer TopCount scintillation counter.
Final reagent concentrations (prior to quench) consisted of the following:
DNMT3b/3L (10 nM), 200 nM DNA, 200 nM 3H-SAM in 20 mM Tris (pH 8), 1 mM DTT, 1 mM EDTA, 25 mM NaCl, 1 mM CHAPS and 2% DMSO.

Row | IC50 [nM] | SMILES
1 | ≤ 20000 | CC#CC(=O)Nc1cccc(CN/C(=N\C#N)NCc2ccnc3[nH]ccc23)c1 [Example 14, (E)-N-(3-((3-((1H-Pyrrolo[2,3-b]pyridin-4-yl)methyl)-2-cyanoguanidino)methyl)phenyl)but-2-ynamide]
2 | ≤ 1000 | O=C(C#Cc1ccccc1)Nc1cccc(CNC(=N[N+](=O)[O-])NCc2ccnc3[nH]ccc23)c1 [Example 24, N-(3-((3-((1H-pyrrolo[2,3-b]pyridin-4-yl)methyl)-2-nitroguanidino)methyl)phenyl)-3-phenylpropiolamide]
3 | ≤ 20000 | C=CC(=O)Nc1ccc(C(F)(F)F)cc1CNC(=S)NCc1ccnc2[nH]ccc12 [Example 33, N-(2-((3-((1H-pyrrolo[2,3-b]pyridin-4-yl)methyl)thioureido)methyl)-4-(trifluoromethyl)phenyl)acrylamide]
4 | ≤ 20000 | O=C(CCBr)Nc1cccc(CNC(=S)NCc2ccnc3[nH]ccc23)c1 [Example 36, N-(3-((3-((1H-pyrrolo[2,3-b]pyridin-4-yl)methyl)thioureido)methyl)phenyl)-3-bromopropanamide]
5 | ≤ 10000 | C=CC(=O)Nc1ccccc1CNS(=O)(=O)NCc1ccnc2[nH]ccc12 [Example 39, N-(2-(((N-((1H-pyrrolo[2,3-b]pyridin-4-yl)methyl)sulfamoyl)amino)methyl)phenyl)acrylamide]
6 | ≤ 1000 | O=C(C#Cc1ccccc1)NCCCNS(=O)(=O)NCc1ccnc2[nH]ccc12 [Example 49, N-(3-((N-((1H-pyrrolo[2,3-b]pyridin-4-yl)methyl)sulfamoyl)amino)propyl)-3-phenylpropiolamide]
7 | ≤ 10000 | O=C(C#Cc1ccccc1)NCCNS(=O)(=O)NCc1ccnc2[nH]ccc12 [Example 50, N-(2-((N-((1H-pyrrolo[2,3-b]pyridin-4-yl)methyl)sulfamoyl)amino)ethyl)-3-phenylpropiolamide]
8 | 7100 | Nc1cccc(CNC(=O)NCc2ccnc3[nH]cc(Cl)c23)c1 [Example 52, 1-(3-aminobenzyl)-3-((3-chloro-1H-pyrrolo[2,3-b]pyridin-4-yl)methyl)urea]
9 | ≤ 10000 | C=CC(=O)Nc1ccc(F)c(CNC(=S)NCc2ccnc3[nH]ccc23)c1 [Example 74, N-(3-((3-((1H-pyrrolo[2,3-b]pyridin-4-yl)methyl)thioureido)methyl)-4-fluorophenyl)acrylamide]
10 | ≤ 1000 | C=CC(=O)Nc1cc(CNC(=S)NCc2ccnc3[nH]ccc23)ccc1Cl [Example 76, N-(5-((3-((1H-pyrrolo[2,3-b]pyridin-4-yl)methyl)thioureido)methyl)-2-chlorophenyl)acrylamide]
11 | ≤ 1000 | CC#CC(=O)Nc1cc(Cl)ccc1CNC(=S)NCc1ccnc2[nH]ccc12 [Example 82, N-(2-((3-((1H-pyrrolo[2,3-b]pyridin-4-yl)methyl)thioureido)methyl)-5-chlorophenyl)but-2-ynamide]
12 | ≤ 10000 | S=C(NCc1ccccc1-c1nccs1)NCc1ccnc2[nH]ccc12 [Example 111, 1-((1H-Pyrrolo[2,3-b]pyridin-4-yl)methyl)-3-(2-(thiazol-2-yl)benzyl)thiourea]
13 | ≤ 20000 | NCC(=O)Nc1cccc(CNC(=S)NCc2ccnc3[nH]ccc23)c1 [Example 112, N-(3-((3-((1H-Pyrrolo[2,3-b]pyridin-4-yl)methyl)thioureido)methyl)phenyl)-2-aminoacetamide]
14 | ≤ 1000 | S=C(NCc1ccccc1-c1cocn1)NCc1ccnc2[nH]ccc12 [Example 115, 1-((1H-pyrrolo[2,3-b]pyridin-4-yl)methyl)-3-(2-(oxazol-4-yl)benzyl)thiourea]

Same assay, conditions: read-out: IC50 against DNMT 3b/3L

Row | SMILES | IC50 [nM]
15 | O=C(C#Cc1ccccc1)Nc1cccc(CNC(=O)NCc2ccnc3[nH]ccc23)c1 [Example 1, N-(3-((3-((1H-Pyrrolo[2,3-b]pyridin-4-yl)methyl)ureido)methyl)phenyl)-3-phenylpropiolamide] | ≤ 1000
16 | CC#CC(=O)Nc1cccc(CNC(=O)NCc2ccnc3[nH]ccc23)c1 [Example 3, N-(3-((3-((1H-Pyrrolo[2,3-b]pyridin-4-yl)methyl)ureido)methyl)phenyl)but-2-ynamide] | ≤ 1000
17 | NCc1cccc(NC(=S)NCc2ccnc3[nH]ccc23)c1 [Example 9, 1-((1H-Pyrrolo[2,3-b]pyridin-4-yl)methyl)-3-(3-(aminomethyl)phenyl)thiourea] | ≤ 20000
18 | COc1ccc(C#CC(=O)NCCNC(=S)NCc2ccnc3[nH]ccc23)cc1 [Example 11, N-(2-(3-((1H-Pyrrolo[2,3-b]pyridin-4-yl)methyl)thioureido)ethyl)-3-(4-methoxyphenyl)propiolamide] | ≤ 10000
19 | N#C/N=C(\NCCNC(=O)C#Cc1ccccc1)NCc1ccnc2[nH]ccc12 [Example 15, (Z)—N-(2-(3-((1H-Pyrrolo[2,3-b]pyridin-4-yl)methyl)-2-cyanoguanidino)ethyl)-3-phenylpropiolamide] | ≤ 10000
20 | O=C(C#Cc1ccccc1)NCCCNC(=O)NCc1ccnc2[nH]ccc12 [Example 17, N-(3-(3-((1H-pyrrolo[2,3-b]pyridin-4-yl)methyl)ureido)propyl)-3-phenylpropiolamide] | ≤ 10000
21 | O=C(C#Cc1ccccc1)NCCCC(=O)NCc1ccnc2[nH]ccc12 [Example 18, N-((1H-pyrrolo[2,3-b]pyridin-4-yl)methyl)-4-(3-phenylpropiolamido)butanamide] | ≤ 1000
22 | O=C(C#Cc1ccccc1)Nc1cccc(CCC(=O)NCc2ccnc3[nH]ccc23)c1 [Example 19, N-(3-(3-(((1H-pyrrolo[2,3-b]pyridin-4-yl)methyl)amino)-3-oxopropyl)phenyl)-3-phenylpropiolamide] | ≤ 1000
23 | CN(CCNC(=O)NCc1ccnc2[nH]ccc12)C(=O)C#Cc1ccccc1 [Example 20, N-(2-(3-((1H-pyrrolo[2,3-b]pyridin-4-yl)methyl)ureido)ethyl)-N-methyl-3-phenylpropiolamide] | ≤ 10000
24 | O=C(C#Cc1ccccc1)NCc1ccccc1CNC(=O)NCc1ccnc2[nH]ccc12 [Example 21, N-(2-((3-((1H-pyrrolo[2,3-b]pyridin-4-yl)methyl)ureido)methyl)benzyl)-3-phenylpropiolamide] | ≤ 1000
25 | O=C(C#Cc1ccccc1)N1CCCC(CNS(=O)(=O)NCc2ccnc3[nH]ccc23)C1 (stereo not drawn) [Example 48, 1-((1H-pyrrolo[2,3-b]pyridin-4-yl)methyl)-3-((1-(3-phenylpropioloyl)piperidin-3-yl)methyl)sulfuric diamide] | ≤ 1000
26 | O=C(C#Cc1ccccc1)Nc1cccc(CNC(=O)NCc2ccnc3[nH]cc(Cl)c23)c1 [Example 53, N-(3-((3-((3-chloro-1H-pyrrolo[2,3-b]pyridin-4-yl)methyl)ureido)methyl)phenyl)-3-phenylpropiolamide] | ≤ 1000
27 | O=C(C#Cc1ccccc1)NCc1ccccc1CNS(=O)(=O)NCc1ccnc2[nH]ccc12 [Example 55, N-(2-(((N-((1H-pyrrolo[2,3-b]pyridin-4-yl)methyl)sulfamoyl)amino)methyl)benzyl)-3-phenylpropiolamide] | ≤ 1000
28 | O=C(C#Cc1ccccc1)NCc1ccccc1CNC(=S)NCc1ccnc2[nH]ccc12 [Example 56, N-(2-((3-((1H-pyrrolo[2,3-b]pyridin-4-yl)methyl)thioureido)methyl)benzyl)-3-phenylpropiolamide] | ≤ 1000
29 | O=C(NCc1ccnc2[nH]ccc12)NC1CN(C(=O)C#Cc2ccccc2)C1 [Example 57, 1-((1H-pyrrolo[2,3-b]pyridin-4-yl)methyl)-3-(1-(3-phenylpropioloyl)azetidin-3-yl)urea] | ≤ 1000
30 | O=C(NCc1ccnc2[nH]ccc12)NC1CCN(C(=O)C#Cc2ccccc2)C1 (stereo not drawn) [Example 58, 1-((1H-pyrrolo[2,3-b]pyridin-4-yl)methyl)-3-(1-(3-phenylpropioloyl)pyrrolidin-3-yl)urea] | ≤ 1000
31 | O=C(C#Cc1ccccc1)Nc1cccc(CNC(=O)NCc2ccnc3[nH]cc(F)c23)c1 [Example 62, N-(3-((3-((3-fluoro-1H-pyrrolo[2,3-b]pyridin-4-yl)methyl)ureido)methyl)phenyl)-3-phenylpropiolamide] | ≤ 1000
32 | O=C(C#Cc1ccccc1)Nc1cccc(CNC(=O)NCc2ccnc3[nH]cc(Br)c23)c1 [Example 63, N-(3-((3-((3-bromo-1H-pyrrolo[2,3-b]pyridin-4-yl)methyl)ureido)methyl)phenyl)-3-phenylpropiolamide] | ≤ 1000
33 | O=C(NCc1ccnc2[nH]cc(Cl)c12)NC1CCN(C(=O)C#Cc2ccccc2)C1 (stereo not drawn) [Example 64, 1-((3-chloro-1H-pyrrolo[2,3-b]pyridin-4-yl)methyl)-3-(1-(3-phenylpropioloyl)pyrrolidin-3-yl)urea] | ≤ 10000
